Reference: article PMC10368209, “Indolo[2,3-e]benzazocines and indolo[2,3-f]benzazonines and their copper(II) complexes as microtubule destabilizing agents” (Dalton Transactions (Cambridge, England : 2003), 2023)
“And” between values parts separate entries of the source, which are not always exact repeats. Equal values may be shown once.

How the values were obtained:
[1] = test system: normal human embryonal lung fibroblast cells (MRC-5); test: In vitro cytotoxicity MTT assay; assay type: cell-based; settings: 72 h incubation
Excerpt: (§1) Four cell lines were used in this study: the doxorubicin-sensitive Colo205 (CCL-222, ATCC, Manassas, VA, USA) human colon adenocarcinoma cell line; the doxorubicin-resistant Colo320/MDR-LRP expressing P-glycoprotein (P-gp, ABCB1) (MDR1)-LRP (CCL-220.1, ATCC) human colon adenocarcinoma cell line; the hormone-responsive MCF-7 breast cancer cell line and the normal MRC-5 human embryonal lung fibroblast cell line (CCL-171, ATCC). The human cancer cell lines were purchased from LGC Promochem (Teddington, UK), and the MRC-5 cell line is a Sigma-Aldrich (Merck KGaA, Darmstadt, Germany) product. The Colo205 and Colo320 cell lines were cultured in RPMI 1640 medium supplemented with 10% fetal bovine serum (FBS), 2 mM L-glutamine, 1 mM Na-pyruvate and 10 mM HEPES. The MCF-7 and MRC-5 cells were cultured in Eagle's Minimal Essential Medium (EMEM) containing 4.5 g L^−1 of glucose and supplemented with a non-essential amino acid mixture, a selection of vitamins and 10% FBS. All cell lines were incubated at 37 °C, 5% CO2, 95% air atmosphere. The cells were detached with Trypsin-Versene (EDTA) solution for 5 min at 37 °C.
(§2) Prior to the cytotoxicity assays 10 mM stock solutions of the tested compounds were prepared in DMSO. These stock solutions were diluted with the culture medium (EMEM or RPMI 1640), and twofold serial dilutions of the compounds were prepared in 100 μL of the appropriate medium. […] The positive control was doxorubicin (Merck), and CuCl2 was also tested. All cancer cells were treated with Trypsin-Versene (EDTA) solution. A cell density of 1 × 10^4 cells was adjusted for the colon adenocarcinoma cells in 100 μL of RPMI 1640 medium and were added to each well, except for the medium control wells. The final volume was 200 μL in the wells containing compounds and cells. The MCF-7 and MRC-5 cells were seeded overnight prior to the assay. The following day, the serial dilution of the compounds were made in separate plates and added to the cells. The culture plates were incubated at 37 °C for 72 h; and at the end of the incubation period, 20 μL of 5 mg mL^−1 3-(4,5-dimethylthiazol-2-yl)-2,5-diphenyltetrazolium bromide (MTT) solution was added to each well and incubated for 4 h at 37 °C. The plates were further incubated at 37 °C overnight following the addition of 100 μL of sodium dodecyl sulfate (SDS) solution (10% in 0.01 M HCl). The optical density (OD) was measured at 450 nm (ref. 620 nm) with a Multiscan EX ELISA reader to follow the cell growth. Inhibition of cell growth (expressed as IC50: inhibitory concentration that reduces by 50% the growth of the cells exposed to the tested compounds) was determined from the sigmoid curve, where 100 − ((ODsample − ODmedium control)/(ODcell control − ODmedium control)) × 100 values were plotted against the logarithm of compound concentrations. The sigmoidal dose–response model (comparing variable and fixed slopes) of the GraphPad Prism software[88] was used to fit the curves. The IC50 values are averages from at least 3 independent experiments.

[2] = test system: doxorubicin-resistant Colo320 human colon adenocarcinoma cell line; test: In vitro cytotoxicity MTT assay; assay type: cell-based; settings: 72 h incubation, MTT
Excerpt: as §1, §2

[3] = test system: Colo205 human colon adenocarcinoma cell line; test: In vitro cytotoxicity MTT assay; assay type: cell-based; settings: 72 h incubation, MTT
Excerpt: as §1, §2

[4] = test system: MCF-7 breast cancer cells; test: In vitro cytotoxicity MTT assay; assay type: cell-based, human; settings: 72 h incubation, MTT
Protocol: The human cancer cell lines were purchased from LGC Promochem (Teddington, UK), and the MRC-5 cell line is a Sigma-Aldrich (Merck KGaA, Darmstadt, Germany) product. […] The MCF-7 and MRC-5 cells were cultured in Eagle's Minimal Essential Medium (EMEM) containing 4.5 g L^−1 of glucose and supplemented with a non-essential amino acid mixture, a selection of vitamins and 10% FBS. […] The cells were detached with Trypsin-Versene (EDTA) solution for 5 min at 37 °C.
Prior to the cytotoxicity assays 10 mM stock solutions of the tested compounds were prepared in DMSO. […] The positive control was doxorubicin (Merck), and CuCl2 was also tested. All cancer cells were treated with Trypsin-Versene (EDTA) solution. […] The final volume was 200 μL in the wells containing compounds and cells. The MCF-7 and MRC-5 cells were seeded overnight prior to the assay. The following day, the serial dilution of the compounds were made in separate plates and added to the cells. The culture plates were incubated at 37 °C for 72 h; and at the end of the incubation period, 20 μL of 5 mg mL^−1 3-(4,5-dimethylthiazol-2-yl)-2,5-diphenyltetrazolium bromide (MTT) solution was added to each well and incubated for 4 h at 37 °C. The plates were further incubated at 37 °C overnight following the addition of 100 μL of sodium dodecyl sulfate (SDS) solution (10% in 0.01 M HCl). The optical density (OD) was measured at 450 nm (ref. 620 nm) with a Multiscan EX ELISA reader to follow the cell growth. […] The sigmoidal dose–response model (comparing variable and fixed slopes) of the GraphPad Prism software[88] was used to fit the curves. The IC50 values are averages from at least 3 independent experiments.

purified tubulin = test: Inhibition of tubulin assembly (turbidity); assay type: biochemical; settings: 10 μM tubulin, 30 °C, turbidity at 350 nm; read-out: Inhibition of tubulin assembly IC50 ± SD
Protocol: The methods used to determine the IC50 values for tubulin assembly and inhibition of [^3H]colchicine binding were recently described in detail.[96] In brief, for the assembly assay, 0.25 mL reaction mixtures contained 1.0 mg mL^−1 (10 μM) tubulin, 0.8 M monosodium glutamate (pH 6.6 with HCl in 2.0 M stock solution), 4% (v/v) DMSO (compound solvent), varying compound concentrations, and 100 μM GTP. All components except GTP were preincubated at 30 °C for 15 min in a 0.24 mL volume. Reaction mixtures were then placed on ice, and the GTP was added in a 10 μL volume. Assembly was monitored in Beckman DU7400/7500 spectrophotometers equipped with electronic temperature controllers and driven by a custom program. The samples were transferred to cuvettes held at 0 °C, and the temperature was jumped to 30 °C over about 30 s. Change in turbidity was measured for 20 min at 350 nm, and the IC50 was defined as the compound concentration that reduced the extent of reaction by 50%. For the colchicine binding assay, reaction mixtures contained 0.05 mg mL^−1 (0.5 μM) tubulin, 5.0 μM [^3H]colchicine, 5% (v/v) DMSO (compound solvent), compound as indicated, and components found to stabilize the colchicine binding activity of tubulin. […] The filters were counted in a Beckman scintillation counter, with correction for the amount of radiolabel bound to filters in the absence of tubulin.

[5] = test system: tubulin (colchicine site); test: Inhibition of [3H]colchicine binding to tubulin; settings: 0.5 μM tubulin, 5 μM [3H]colchicine
Protocol: The methods used to determine the IC50 values for tubulin assembly and inhibition of [^3H]colchicine binding were recently described in detail.[96] In brief, for the assembly assay, 0.25 mL reaction mixtures contained 1.0 mg mL^−1 (10 μM) tubulin, 0.8 M monosodium glutamate (pH 6.6 with HCl in 2.0 M stock solution), 4% (v/v) DMSO (compound solvent), varying compound concentrations, and 100 μM GTP. All components except GTP were preincubated at 30 °C for 15 min in a 0.24 mL volume. Reaction mixtures were then placed on ice, and the GTP was added in a 10 μL volume. Assembly was monitored in Beckman DU7400/7500 spectrophotometers equipped with electronic temperature controllers and driven by a custom program. The samples were transferred to cuvettes held at 0 °C, and the temperature was jumped to 30 °C over about 30 s. Change in turbidity was measured for 20 min at 350 nm, and the IC50 was defined as the compound concentration that reduced the extent of reaction by 50%. For the colchicine binding assay, reaction mixtures contained 0.05 mg mL^−1 (0.5 μM) tubulin, 5.0 μM [^3H]colchicine, 5% (v/v) DMSO (compound solvent), compound as indicated, and components found to stabilize the colchicine binding activity of tubulin. Incubation was for 10 min at 37 °C, at which time the amount of colchicine bound to the tubulin is 40–60% of maximum. Each reaction mixture was diluted with 2.0 mL of ice cold water and poured onto a single Whatman DEAE-cellulose filter (tubulin binds tightly to the filter, and unbound colchicine passes through). Gravity filtration was used for the samples, and the filters were then washed with three 2.0 mL aliquots of ice cold water (vacuum aspiration). The filters were counted in a Beckman scintillation counter, with correction for the amount of radiolabel bound to filters in the absence of tubulin.

Structure (SMILES) | IC50 [1] [µM] | IC50 [2] [µM] | IC50 [3] [µM] | IC50 [4] [µM] | IC50 (purified tubulin) | Inhibition of colchicine binding % inhibition ± SD ([5]; 0.5 μM inhibitor) [%] | Inhibition of colchicine binding % inhibition ± SD ([5]; 5 μM inhibitor) [%]
[Cl][Cu][Cl] [CuCl2, reference compound] | 40 ± 1 | 20 ± 2 | 33 ± 1 | 32 ± 3 | – | – | –
COc1ccc(/C=C\c2cc(OC)c(OC)c(OC)c2)cc1O [CA-4, combretastatin A-4, reference compound] | – | – | – | – | […] | 81 ± 4 | […]
